{"source": "patent US10874743B2", "about": "“IRAK degraders and uses thereof” (Kymera Therapeutics, Inc., priority 2017, dated 2020)"}
{"target": "T1, IRAK4 (Homo sapiens, UniProt Q9NWZ3)", "T1 sequence (Q9NWZ3 1-460)": "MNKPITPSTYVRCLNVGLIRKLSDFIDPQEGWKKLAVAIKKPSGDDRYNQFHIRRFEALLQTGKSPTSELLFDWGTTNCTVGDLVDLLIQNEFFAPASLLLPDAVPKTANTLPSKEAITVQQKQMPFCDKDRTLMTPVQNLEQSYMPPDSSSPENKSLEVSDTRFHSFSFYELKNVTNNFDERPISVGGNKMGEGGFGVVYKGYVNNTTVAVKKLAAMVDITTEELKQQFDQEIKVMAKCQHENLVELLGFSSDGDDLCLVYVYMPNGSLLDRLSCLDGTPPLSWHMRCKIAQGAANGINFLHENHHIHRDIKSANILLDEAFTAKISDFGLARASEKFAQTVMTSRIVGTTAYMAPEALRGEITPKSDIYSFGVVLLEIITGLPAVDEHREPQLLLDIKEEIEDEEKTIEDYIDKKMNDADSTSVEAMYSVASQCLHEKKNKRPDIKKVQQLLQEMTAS", "test": "THP-1 degradation assay (western blot, % IRAK4 degraded after 24 hours)", "format": "cell-based", "parameters": "endogenous in cells", "conditions": "THP-1 cells", "experimental": "Compounds were reconstituted in DMSO to make stock solutions at concentration of 60 mM. THP-1 and OCI-LY10 cells were maintained in RPMI-1640 medium containing 10% FBS, 0.5 μM 2-ME or 20% FBS, 55 μM 2-ME, and 1% L-Glutamine respectively.\nCells were seeded into 6-well plates with 5e6 cells per well. 200 μL of diluted compounds were added to cells to the final concentration of 0.003-10 μM. After 4 or 24 hour-incubation at 37° C., cells were collected into 2 mL Eppendorf tubes and centrifuged at 1,000 rpm for 5 min. The cell pellets were washed with 1×DPBS once and resuspended in 60 μL lysis buffer. The cells were lysed on ice for 10 min, then centrifuged at 14,000 rpm for 10 min at 4° C. and the supernatants were collected for western blots. For THP-1 cells, the lysis buffer contained 40 mM pH 7.4 HEPES, 140 mM NaCl, 2.5 mM EDTA, 1% NP-40, 0.1% SDS, and protease inhibitor cocktail (Roche, Cat. No. 05892791001). For OCI-LY10 cells, RIPAbuffer (Thermo Fisher, 89900) with Halt Protease and Phosphatase Inhibitor Cocktail (Thermo Fisher, 78446) was applied.\nThe protein concentration of cell lysates was quantified with Pierce™ BCA Protein Assay Kit (Pierce, 23227). Albumin standards at different concentrations were prepared, involving 2,000 ug/mL, 1,500 ug/mL, 1,000 ug/mL, 750 ug/mL, 500 ug/mL, 250 ug/mL, 125 ug/mL, and 25 ug/mL. BCA working reagents were prepared by mixing BCA reagent A with reagent B in 50:1 ratio. 200 μL of the BCA working reagents were added to 25 μL of BCA standard or cell lysates in microplate, and mixed thoroughly on a plate shaker for 30 seconds. After incubation at 37° C. for 30 min, the absorbance of samples at 562 nm were measured with EnVision Plate Reader.\nProtein lysates were prepared in NuPAGE™ LDS sample buffer and NuPAGE™ sample reducing agent, and incubated at 95° C. for 5 min. For western blots, 20-25 μg of total proteins were resolved in 4-12% Bis-Tris gels (Introgen, WG1403A) or 10% Bis-Tris Midi gels (Invitrogen, WG1202BOX) running with 1×MOPS SDS running buffer (Invitrogen, NP0001) or 1×MES SDS running buffer (Invitrogen, NP0002). The proteins were transferred to low fluorescence PVDF membranes using the Trans-Blot Turbo Transfer System. Membranes were then blocked in Odyssey blocking buffer at RT for 1 h followed by primary incubation at 4° C. overnight. The primary antibodies were IRAK1 rabbit monoclonal antibody (CST, #4504S, 1:500), IRAK3 rabbit polyclonal antibody (CST, #4369, 1:500), IRAK4 rabbit polyclonal antibody (CST, #4363S, 1:1,000), MyD88 rabbit monoclonal antibody (Abcam, Ab133739, 1:2,000), j3-actin mouse monoclonal antibody (Sigma, A5441, 10,000), and Gapdh mouse monoclonal antibody (Millipore, MAB374, 1:5,000). Membranes were washed three times with 1×TBST, and then incubated with IR Dye 800 CW Goat anti-rabbit (Licor, #926-32211) and IR Dye 700 CW Goat anti-mouse (Licor, #926-68070) secondary antibodies in 1:10,000 dilution at RT for 1 h. The western blot images were obtained using Odyssey Imaging System.\nTHP-1 results at 24 hours. The letter codes indicate the percentage of IRAK4 degraded after 24 hours: A (>50% degradation), B (>20-50% degradation) and C (<20% degradation)"}
{"smiles": "O=C1CCC(N2C(=O)c3cccc(NCCOCCOCCOCCOCCOCCOCC(F)CNC(=O)c4cnc(Nc5ccc6cnccc6n5)cc4NC4CC4)c3C2=O)C(=O)N1", "note": "(stereo not drawn) [I-51]", "THP-1 24 h % IRAK4 Degradation": "C (<20% degradation)"}
{"smiles": "O=C1CCC(N2C(=O)c3cccc(NCCOCCOCCOCCOCCOCC(F)CNC(=O)c4cnc(Nc5ccc6ncsc6c5)cc4NC4CC4)c3C2=O)C(=O)N1", "note": "(stereo not drawn) [I-52]", "THP-1 24 h % IRAK4 Degradation": "C (<20% degradation)"}
{"smiles": "CC(C)(OCC(=O)NCCOCCOCCNc1cccc2c1C(=O)N(C1CCC(=O)NC1=O)C2=O)C(F)CNC(=O)c1cnc(Nc2ccc3cnccc3n2)cc1NC1CC1", "note": "(stereo not drawn) [I-55]", "THP-1 24 h % IRAK4 Degradation": "C (<20% degradation)"}
{"smiles": "N#Cc1cnc(Nc2cc(NC3CC3)c(C(=O)NCC(F)COCCOCCOCCNc3cccc4c3C(=O)N(C3CCC(=O)NC3=O)C4=O)cn2)c(F)c1", "note": "(stereo not drawn) [I-58]", "THP-1 24 h % IRAK4 Degradation": "C (<20% degradation)"}
{"smiles": "O=C(COc1cccc2c1C(=O)N(C1CCC(=O)NC1=O)C2=O)NCCOCCOCCOCC(F)CNC(=O)c1cnc(Nc2ccc3cnccc3n2)cc1NC1CC1", "note": "(stereo not drawn) [I-96]", "THP-1 24 h % IRAK4 Degradation": "C (<20% degradation)"}
{"smiles": "O=C(COc1cccc2c1C(=O)N(C1CCC(=O)NC1=O)C2=O)NCCOCCOCCOCCOCCOCC(F)CNC(=O)c1cnc(Nc2ccc3cnccc3n2)cc1NC1CC1", "note": "(stereo not drawn) [I-97]", "THP-1 24 h % IRAK4 Degradation": "B (>20-50% degradation)"}
{"smiles": "O=C(COc1cccc2c1C(=O)N(C1CCC(=O)NC1=O)C2=O)NCCOCCOCCOCCOCC(F)CNC(=O)c1cnc(Nc2ccc3cnccc3n2)cc1NC1CC1", "note": "(stereo not drawn) [I-98]", "THP-1 24 h % IRAK4 Degradation": "B (>20-50% degradation)"}
{"smiles": "O=C(COc1cccc2c1C(=O)N(C1CCC(=O)NC1=O)C2=O)NCCOCCOCC(F)CNC(=O)c1cnc(Nc2ccc3cnccc3n2)cc1NC1CC1", "note": "(stereo not drawn) [I-99]", "THP-1 24 h % IRAK4 Degradation": "C (<20% degradation)"}
{"smiles": "O=C(COc1cccc2c1C(=O)N(C1CCC(=O)NC1=O)C2=O)NCCCOCCCOCC(F)CNC(=O)c1cnc(Nc2ccc3cnccc3n2)cc1NC1CC1", "note": "(stereo not drawn) [I-100]", "THP-1 24 h % IRAK4 Degradation": "B (>20-50% degradation)"}
{"smiles": "Cc1ncsc1-c1ccc(CNC(=O)[C@@H]2C[C@@H](O)CN2C(=O)[C@@H](NC(=O)COCCOCCOCCOCCOCCOCC(F)CNC(=O)c2cnc(Nc3ccc4cnccc4n3)cc2NC2CC2)C(C)(C)C)cc1", "note": "(stereo partly drawn) [I-119]", "THP-1 24 h % IRAK4 Degradation": "B (>20-50% degradation)"}
{"smiles": "Cc1ncsc1-c1ccc(CNC(=O)[C@@H]2C[C@@H](O)CN2C(=O)[C@@H](NC(=O)COCCOCCOCC(F)CNC(=O)c2cnc(Nc3ccc4cnccc4n3)cc2NC2CC2)C(C)(C)C)cc1", "note": "(stereo partly drawn) [I-120]", "THP-1 24 h % IRAK4 Degradation": "C (<20% degradation)"}
{"smiles": "Cc1ncsc1-c1ccc(CNC(=O)C2C[C@@H](O)CN2C(=O)[C@@H](NC(=O)COCCOCCOC(C)C(F)CNC(=O)c2cnc(-n3ncc4cc(C#N)cnc43)cc2NC2CC2)C(C)(C)C)cc1", "note": "(stereo partly drawn) [I-122]", "THP-1 24 h % IRAK4 Degradation": "C (<20% degradation)"}
{"smiles": "COc1cc(Nc2nc(N[C@H]3CCCC[C@H]3N)n3ccnc3c2C(N)=O)cc(OCCOCCOCCOCC(=O)N[C@H](C(=O)N2C[C@H](O)C[C@H]2C(=O)NCc2ccc(-c3scnc3C)cc2)C(C)(C)C)c1", "note": "[I-162, 5-[[(1S,2R)-2-aminocyclohexyl]amino]-7-[3-[2-[2-[2-[2-[[(1S)-1-[(2S,4R)-4-hydroxy-2-[[4-(4-methylthiazol-5-yl)phenyl]methylcarbamoyl]pyrrolidine-1-carbonyl]-2,2-dimethyl-propyl]amino]-2-oxo-ethoxy]ethoxy]ethoxy]ethoxy]-5-methoxy-anilino]imidazo[1,2-c]pyrimidine-8-carboxamide]", "THP-1 24 h % IRAK4 Degradation": "A (>50% degradation)"}
{"smiles": "COc1cc(Nc2nc(N[C@H]3CCCC[C@H]3N)n3ccnc3c2C(N)=O)cc(OCCOCCOCCOCCOCCOCC(=O)N[C@H](C(=O)N2C[C@H](O)C[C@H]2C(=O)NCc2ccc(-c3scnc3C)cc2)C(C)(C)C)c1", "note": "[I-163]", "THP-1 24 h % IRAK4 Degradation": "C (<20% degradation)"}
{"smiles": "COc1cc(Nc2nc(N[C@H]3CCCC[C@H]3N)n3ccnc3c2C(N)=O)cc(OC)c1OCCOCCOCCOCCOCC(=O)N[C@H](C(=O)N1C[C@H](O)C[C@H]1C(=O)NCc1ccc(-c2scnc2C)cc1)C(C)(C)C", "note": "[I-164]", "THP-1 24 h % IRAK4 Degradation": "C (<20% degradation)"}
{"smiles": "COc1cc(Nc2nc(N[C@H]3CCCC[C@H]3N)n3ccnc3c2C(N)=O)cc(OC)c1OCCOCCOCCOCC(=O)N[C@H](C(=O)N1C[C@H](O)C[C@H]1C(=O)NCc1ccc(-c2scnc2C)cc1)C(C)(C)C", "note": "[I-165]", "THP-1 24 h % IRAK4 Degradation": "C (<20% degradation)"}
{"smiles": "Cc1ncsc1-c1ccc(CNC(=O)[C@@H]2C[C@@H](O)CN2C(=O)[C@@H](NC(=O)COCCOCCn2ccc3c(Nc4nc(N[C@@H]5CCCC[C@@H]5N)cc5[nH]cnc(=O)c45)cccc32)C(C)(C)C)cc1", "note": "[I-189, (2S,4R)-1-[(2S)-2-[[2-[2-[2-[4-[[7-[[(1R,2S)-2-aminocyclohexyl]amino]-4-oxo-3H-pyrido[4,3-d]pyrimidin-5-yl]amino]indol-1-yl]ethoxy]ethoxy]acetyl]amino]-3,3-dimethyl-butanoyl]-4-hydroxy-N-[[4-(4-methylthiazol-5-yl)phenyl]methyl]pyrrolidine-2-carboxamide]", "THP-1 24 h % IRAK4 Degradation": "C (<20% degradation)"}
{"smiles": "NC(=O)c1nnc(N[C@@H]2CCCC[C@@H]2N)nc1Nc1cccc2c1ccn2CCOCCOCCOCCOCCNc1cccc2c1C(=O)N(C1CCC(=O)NC1=O)C2=O", "note": "(stereo partly drawn) [I-194, 3-[[(1R,2S)-2-aminocyclohexyl]amino]-5-[[1-[2-[2-[2-[2-[2-[[2-(2,6-dioxo-3-piperidyl)-1,3-dioxo-isoindolin-4-yl]amino]ethoxy]ethoxy]ethoxy]ethoxy]ethyl]indol-4-yl]amino]-1,2,4-triazine-6-carboxamide]", "THP-1 24 h % IRAK4 Degradation": "C (<20% degradation)"}
{"smiles": "Cc1ncsc1-c1ccc(CNC(=O)[C@@H]2C[C@@H](O)CN2C(=O)[C@@H](NC(=O)COCCOCCOCCOCCNC(=O)Cn2ccc3c(Nc4nc(N[C@@H]5CCCC[C@@H]5N)cc5[nH]cnc(=O)c45)cccc32)C(C)(C)C)cc1", "note": "[I-195, (2S,4R)-1-[(2S)-2-[2-[2-[2-[2-[2-[[2-[4-[[7-[[(1R,2S)-2-Aminocyclohexylamino]-4-oxo-3H-pyrido[4,3-d]pyrimidin-5-yl]amino]indol-1-yl]acetyl]amino]ethoxy]ethoxy]ethoxy]ethoxy]acetyl]amino]-3,3-dimethyl-butanoyl]-4-hydroxy-N-[[4-(4-methylthiazol-5-yl)phenyl]methyl]pyrrolidine-2-carboxamide]", "THP-1 24 h % IRAK4 Degradation": "C (<20% degradation)"}
{"smiles": "COc1cc(Nc2nc(N[C@H]3CCCC[C@H]3N)n3ccnc3c2C(N)=O)cc(OCCOCCOCCOCCOCCNc2cccc3c2C(=O)N(C2CCC(=O)NC2=O)C3=O)c1", "note": "(stereo partly drawn) [I-199]", "THP-1 24 h % IRAK4 Degradation": "C (<20% degradation)"}
{"smiles": "COc1cc(Nc2nc(N[C@H]3CCCC[C@H]3N)n3ccnc3c2C(N)=O)cc(OC)c1OCCOCCOCCOCCNc1cccc2c1C(=O)N(C1CCC(=O)NC1=O)C2=O", "note": "(stereo partly drawn) [I-200, 5-(((1S,2R)-2-aminocyclohexyl)amino)-7-((4-(2-(2-(2-(2-((2-(2,6-dioxopiperidin-3-yl)-1,3-dioxoisoindolin-4-yl)amino)ethoxy)ethoxy)ethoxy)ethoxy)-3,5-dimethoxyphenyl)amino)imidazo[1,2-c]pyrimidine-8-carboxamide]", "THP-1 24 h % IRAK4 Degradation": "C (<20% degradation)"}
